Reference: US6436344B1, “Method of inactivating pathogens” (American National Red Cross, priority 1999, dated 2002)
Several values for one entry are separate records, joined by “and”; a condition that tells them apart may be missing. Equal entries are not always repeated. Where two headings read alike, the source gives them in different places.

Tests used:
porcine parvovirus (PPV) [1] = assay: Porcine parvovirus inactivation by IAA, TCID50 titration on PK 15 cells (Example 2); type: cell-based, strain PPV 893/76; conditions: for PPV Reduction Factor: 4 hours
Description: RPC-purified IAA was diluted to the desired μM concentrations in water or in 5% IgG solution (>98% pure, KABI, Stockholm, Sweden), and the pH was adjusted to 5.00 with 0.4 M sodium phosphate. […] The samples were then gel filtered through sterile PD 10 columns containing Sephadex G-25 (Amersham Pharmacia Biotech Uppsala, Sweden) equilibrated with 25 ml of cell culture medium. A sample (2 ml) was layered onto the column and the fall-through was discarded. Then 3.2 ml cell culture medium (3.2 ml) was added to the column and the first 0.5 mL of eluate was discarded. The remaining eluate was collected for viral assay. The resulting diluting factor was 1.48. Materials for viral assays were as follows. […] The cell supernatant was clarified by low speed centrifugation and filtered through 0.45 μm and 0.2 μm filters before storing at -70° C. in aliquots. The target cells for titration of PPV were porcine kidney cell line PK 15 (ATCC CCL-33). The cells were cultivated according to conventional cell culture procedures in EMEM with non-essential amino acids (SVA, Uppsala, Sweden), supplemented with 120 μg/ml of penicillin G, 100 μg/ml of streptomycin sulfate and 5% fetal calf serum. Cells were seeded in 96 well microtiter plates (Nunc). Viral assays were performed by a TCID50 method. The original virus stock (positive control sample) and the test samples were serially diluted ten-fold in cell culture medium shortly after sampling. Aliquots (50 μl) of each dilution were added to eight wells of the 96-well microtiter plates. […] After incubation for 7 days at 37° C. in a humidified atmosphere of 5% CO2, the cells were rinsed in physiological saline and fixed in 80% acetone for 30 minutes at -20° C., after which the fixation fluid was removed and the plates were dried at 37° C. Virus infected cells were visualized by an immunoperoxidase method (Jensen […]. 22 (1981) 85-98; […]., RECENT ADVANCES IN VIRUS DIAGNOSTICS, McNutly and […]. (1984) 37-46; Saunders G. C., Am. J. VET. RES. 38 (1977) 21-25). […] The cells were then washed twice for five minutes with wash fluid and once with physiological saline. Peroxidase-conjugated rabbit anti-mouse IgG P 2060 (Dakopatts, Denmark) was added to the cells. […] Wells with viral foci were counted using an inverted microscope and the tissue culture infectious dose giving a 50% end point (TCID50) was calculated for each sample. […] 10^R=(V'×10^a')/(V''×10^a'')

[2] = Effect of pH 12, heat and thiosulfate on iodoacetaldehyde, GC-MS and NMR (Example 8); type: physicochemical
[3] = Relative amount of IAA and its hydrated form in water by NMR (Example 1C); type: physicochemical; conditions: water solution, NMR estimate, 40° C.
Description: One-dimensional ^1H-NMR spectra were recorded on a Bruker DRX 500 spectrometer at 40° C. The signal for TSP was used as internal reference (δH=0.0 ppm). A sample was prepared by adding 50 μl of the solution purified by reverse phase chromatography (RPC) to 650 μl D2O and subsequently transferring the diluted sample to a 5 mm NMR tube. For the quantitative measurement, a solution of Sodium Trimethyl Silyl Propionic acid (TSP, 0.991 mg/ml) was prepared; and 10 μl of that solution was added to the sample. By comparing the integral of the methyl groups in TSP with the integral of the CH2-group in hydrated IAA, an estimate of the IAA concentration in the sample could be made. Iodoacetaldehyde is in equilibrium with its hydrated form in a water solution. An estimate based on NMR is that the hydrated form accounts for approximately 90% of the sample, and the aldehyde form approximately 10%. This equilibrium should be taken into account when calculating concentration of IAA in aqueous media.

porcine parvovirus (PPV) [4] = assay: Porcine parvovirus inactivation by CAA, TCID50 titration on PK-13 cells (Example 3); type: cell-based, PPV strain NADL-2
Description: An aqueous solution of chloroacetaldehyde (Aldrich Chemical, Milwaukee, Wis., Product 31,727-6, Lot KS02106MR, 50% in water) was diluted to the desired mM concentrations (0.5, 1, 2 and 5 mM) in 0.05 M sodium acetate buffer, pH 5.5. The 2 mM and 5 mM CAA samples were also prepared in 2.5% IgG solution, buffered at pH 5.5 with sodium acetate. Positive hold controls contained 0.05 M sodium acetate buffer, pH 5.5, or acetate-buffered 2.5% IgG without CAA. Positive controls and test samples were spiked 1:40 with porcine parvovirus (ATCC VR-742, PPV strain NADL-2). Aliquots were removed for immediate viral assay and the remaining samples were incubated at 37° C. for 4, 7 and 22.5 hours and then assayed to determine viral titers.
(§1) Viral assays were performed by the TCID50 method as described by Miekka et al, HEMOPHILIA 4, 401-408 (1998). Target porcine kidney cells, PK-13 (ATCC CRC-6490), were seeded into 96-well microtiter plates and grown to 50-70% confluence. Five-fold serial dilutions (200 μL) of samples were prepared in cell culture medium and added to four wells each. Plates were incubated for 7 days at 37° C. in humidified 5% carbon dioxide. Cell layers were analyzed for cytopathic effect, and log10 viral titers were calculated by the method of Kärber, ARCH. Exp. PATHOL. PHARMAKOL., 162, 480-483 (1931). The average PPV reduction rate (log10/hour) was computed by regression analysis of the viral titers at each of the time points tested. Viral titers that had decreased to the assay limit were excluded from this calculation.

pseudorabies virus (PRV) = type: cell-based; conditions: for Pseudorabies Virus Av. rate / Pseudorabies Virus Reduction Factor: pH 5.5, 4 hours at 37° C.
[5] = biological target: T1, human coagulation Factor VIII (Homo sapiens, UniProt P00451); assay: Preservation of Factor VIII clotting activity, one-stage APTT (Example 5); type: biochemical; conditions: for FVIII u/mL after 37° C. incubation, 3 hours: 3 hours at 37° C.
T1 construct: The CFVIII product tested was ‘Antihemophilic Factor, Human, Method M, Solvent and Detergent Treated’ (American Red Cross); tissue American Red Cross; host or cells: human plasma (own knowledge: Method M is a plasma-derived, monoclonal-antibody-purified concentrate)
T1 sequence (P00451 20-1667 limits assumed): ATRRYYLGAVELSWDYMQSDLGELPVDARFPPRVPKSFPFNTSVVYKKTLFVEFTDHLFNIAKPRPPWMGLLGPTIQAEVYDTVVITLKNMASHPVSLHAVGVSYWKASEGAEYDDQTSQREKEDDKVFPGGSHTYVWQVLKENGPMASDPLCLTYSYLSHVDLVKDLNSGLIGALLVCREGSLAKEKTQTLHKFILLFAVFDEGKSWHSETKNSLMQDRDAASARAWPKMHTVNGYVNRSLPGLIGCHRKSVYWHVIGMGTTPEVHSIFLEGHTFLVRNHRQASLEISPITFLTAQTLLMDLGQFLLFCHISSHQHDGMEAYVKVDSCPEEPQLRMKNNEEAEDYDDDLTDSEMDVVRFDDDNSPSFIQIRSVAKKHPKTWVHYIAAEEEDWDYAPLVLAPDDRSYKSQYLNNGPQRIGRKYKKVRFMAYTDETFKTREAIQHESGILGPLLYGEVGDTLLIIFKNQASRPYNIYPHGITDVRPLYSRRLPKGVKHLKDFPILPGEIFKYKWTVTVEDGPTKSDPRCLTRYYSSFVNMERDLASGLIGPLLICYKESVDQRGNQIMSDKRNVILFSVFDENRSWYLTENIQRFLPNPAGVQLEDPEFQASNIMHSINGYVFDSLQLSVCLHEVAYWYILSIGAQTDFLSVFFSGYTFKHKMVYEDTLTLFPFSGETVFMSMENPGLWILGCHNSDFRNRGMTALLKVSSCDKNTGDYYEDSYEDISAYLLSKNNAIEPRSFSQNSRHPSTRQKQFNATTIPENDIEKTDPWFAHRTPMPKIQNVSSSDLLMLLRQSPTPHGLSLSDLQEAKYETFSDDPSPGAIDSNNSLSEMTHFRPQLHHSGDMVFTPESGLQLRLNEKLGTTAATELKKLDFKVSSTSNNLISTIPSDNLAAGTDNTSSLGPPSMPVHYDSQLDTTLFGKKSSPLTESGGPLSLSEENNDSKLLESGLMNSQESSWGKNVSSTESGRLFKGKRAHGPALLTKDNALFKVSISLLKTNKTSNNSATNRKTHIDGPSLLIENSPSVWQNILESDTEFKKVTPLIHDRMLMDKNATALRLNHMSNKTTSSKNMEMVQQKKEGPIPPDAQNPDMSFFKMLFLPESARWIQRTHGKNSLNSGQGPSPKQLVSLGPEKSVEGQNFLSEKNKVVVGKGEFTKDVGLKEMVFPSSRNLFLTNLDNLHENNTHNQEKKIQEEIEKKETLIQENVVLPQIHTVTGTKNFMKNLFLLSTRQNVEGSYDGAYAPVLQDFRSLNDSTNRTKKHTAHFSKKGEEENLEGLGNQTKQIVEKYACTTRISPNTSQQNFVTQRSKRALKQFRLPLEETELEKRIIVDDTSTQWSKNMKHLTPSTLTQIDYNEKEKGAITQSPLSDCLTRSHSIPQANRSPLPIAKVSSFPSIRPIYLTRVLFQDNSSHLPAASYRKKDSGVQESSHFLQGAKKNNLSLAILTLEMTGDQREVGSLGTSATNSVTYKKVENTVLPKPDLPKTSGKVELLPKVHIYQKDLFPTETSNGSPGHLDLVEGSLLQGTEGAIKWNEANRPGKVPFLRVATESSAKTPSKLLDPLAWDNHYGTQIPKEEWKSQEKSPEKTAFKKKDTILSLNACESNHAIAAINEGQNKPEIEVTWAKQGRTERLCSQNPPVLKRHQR
T1 sequence (P00451 1668-2351 limits assumed): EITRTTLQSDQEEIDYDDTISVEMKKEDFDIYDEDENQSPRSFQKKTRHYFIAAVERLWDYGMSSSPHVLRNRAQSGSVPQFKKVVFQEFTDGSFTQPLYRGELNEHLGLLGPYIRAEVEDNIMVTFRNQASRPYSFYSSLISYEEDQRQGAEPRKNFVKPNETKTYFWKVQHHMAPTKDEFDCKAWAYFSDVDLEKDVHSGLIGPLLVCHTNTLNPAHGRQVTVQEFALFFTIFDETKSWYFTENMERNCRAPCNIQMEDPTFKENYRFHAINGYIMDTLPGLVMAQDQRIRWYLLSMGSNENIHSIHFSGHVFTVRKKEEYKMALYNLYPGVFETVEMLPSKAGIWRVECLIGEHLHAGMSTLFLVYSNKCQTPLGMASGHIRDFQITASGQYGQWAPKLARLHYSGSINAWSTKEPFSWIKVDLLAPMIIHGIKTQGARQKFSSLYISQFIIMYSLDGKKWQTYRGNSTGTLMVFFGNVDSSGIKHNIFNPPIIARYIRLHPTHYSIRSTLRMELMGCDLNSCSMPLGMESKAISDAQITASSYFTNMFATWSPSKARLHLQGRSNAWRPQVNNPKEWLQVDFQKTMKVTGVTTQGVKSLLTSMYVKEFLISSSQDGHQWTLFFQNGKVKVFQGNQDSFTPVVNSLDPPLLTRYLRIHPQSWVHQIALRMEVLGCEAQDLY

porcine parvovirus (PPV) [6] = assay: Inactivation of PPV by CAA in the presence of Factor VIII (Example 6); type: cell-based
Description: as §1
A stock solution of 100 mM CAA in water was neutralized to pH 7.0 and was added to CFVIII to give final CAA concentrations of 3 mM and 6 mM and final CFVIII concentration of 100 clotting units/mL. All samples were buffered at pH 5.5 with 0.02 M sodium acetate. PPV was spiked into the samples at 1:40 ratio. The samples were incubated for 4 hours at 37° C. The positive hold controls were acetate buffer or Factor VIII, spiked with PPV and incubated 4 hours at 37° C. Viral assays and cell culture techniques were performed as described in EXAMPLE 3. Viral reduction factors were calculated as the difference between the log10 titers of the non-incubated and 4-hour incubated samples.

[7] = biological target: T2, human coagulation Factor IX (Homo sapiens, UniProt P00740); assay: Preservation of Factor IX clotting activity, one-stage APTT (Example 7); type: biochemical; conditions: 0.01 M calcium chloride, pH 6.2
T2 construct: highly-purified human coagulation Factor IX, a labile plasma clotting factor; from tissue
T2 sequence (P00740 47-461): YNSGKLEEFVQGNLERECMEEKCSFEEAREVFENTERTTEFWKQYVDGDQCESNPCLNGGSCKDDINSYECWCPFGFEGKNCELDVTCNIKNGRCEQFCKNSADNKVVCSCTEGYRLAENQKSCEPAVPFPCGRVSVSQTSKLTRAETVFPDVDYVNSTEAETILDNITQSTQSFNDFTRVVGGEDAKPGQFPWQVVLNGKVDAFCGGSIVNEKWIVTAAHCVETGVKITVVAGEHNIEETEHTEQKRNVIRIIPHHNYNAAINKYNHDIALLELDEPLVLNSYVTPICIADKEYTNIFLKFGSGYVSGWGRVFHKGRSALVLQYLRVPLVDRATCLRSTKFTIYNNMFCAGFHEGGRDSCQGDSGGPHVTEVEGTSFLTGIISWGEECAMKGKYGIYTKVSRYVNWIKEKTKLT

[8] = 5 mM CAA, incubation for 4 hours
[9] = CAA 3 mM, Factor VIII (AHF-M) 100 clotting units/mL, pH 5.5, 4 hours at 37° C.
[10] = CAA 3 mM, buffer pH 5.5, 4 hours at 37° C.
[11] = CAA 6 mM, Factor VIII (AHF-M) 100 clotting units/mL, pH 5.5, 4 hours at 37° C.
[12] = CAA 6 mM, buffer pH 5.5, 4 hours at 37° C.
[13] = CAA 3 and 6 mM, with and without Factor VIII, 4 hours

O=CCI [IAA, Iodoacetaldehyde]
potency relative to CAA (PPV inactivation) (porcine parvovirus (PPV) [1]; 180 μM IAA v. 2 mM CAA at the same rate): over 10 times
PPV Reduction Factor (porcine parvovirus (PPV) [1]; IAA 36 μM (hydrated form), 5% IgG, pH 4.64, 37° C.): ≦0.7 Log10/4 hours
PPV Reduction Factor (porcine parvovirus (PPV) [1]; IAA 36 μM (hydrated form), buffer, pH 4.96, 37° C.): 0.8 Log10/4 hours
PPV Reduction Factor (porcine parvovirus (PPV) [1]; IAA 45 μM (hydrated form), 5% IgG, pH 4.64, 37° C.): 0.9 Log10/4 hours
PPV Reduction Factor (porcine parvovirus (PPV) [1]; IAA 45 μM (hydrated form), buffer, pH 4.96, 37° C.): 1.1 Log10/4 hours
PPV Reduction Factor (porcine parvovirus (PPV) [1]; IAA 60 μM (hydrated form), 5% IgG, pH 4.64, 37° C.): 1.2 Log10/4 hours
PPV Reduction Factor (porcine parvovirus (PPV) [1]; IAA 60 μM (hydrated form), buffer, pH 4.96, 37° C.): 1.1 Log10/4 hours
PPV Reduction Factor (porcine parvovirus (PPV) [1]; IAA 90 μM (hydrated form), 5% IgG, pH 4.62, 37° C.): 1.4 Log10/4 hours
PPV Reduction Factor (porcine parvovirus (PPV) [1]; IAA 90 μM (hydrated form), buffer, pH 4.95, 37° C.): 1.7 Log10/4 hours
PPV inactivation rate (porcine parvovirus (PPV) [1]; IAA 180 μM): ~0.6 log10/hour
PPV Reduction Factor (porcine parvovirus (PPV) [1]; IAA 180 μM (hydrated form), 5% IgG, pH 4.61, 37° C.): 2.5 Log10/4 hours
PPV Reduction Factor (porcine parvovirus (PPV) [1]; IAA 180 μM (hydrated form), buffer, pH 4.93, 37° C.): 2.7 Log10/4 hours
PPV Reduction Factor (porcine parvovirus (PPV) [1]; IAA 600 μM (hydrated form), 5% IgG, pH 4.56, 37° C.): ≧4.7 Log10/4 hours
PPV Reduction Factor (porcine parvovirus (PPV) [1]; IAA 600 μM (hydrated form), buffer, pH 4.84, 37° C.): ≧4.7 Log10/4 hours
concentration effective at inactivating pathogens, e.g., porcine parvovirus (as low as) (porcine parvovirus (PPV) [1]; IAA hydrate): 50 µM
Effect on Iodoacetaldehyde, Change ([2]; 80° C. (20 hours)): Degraded
Effect on Iodoacetaldehyde, Change ([2]; Sodium thiosulfate, 2-20 mM): Degraded
Effect on Iodoacetaldehyde, Change ([2]; pH 12 (0.5 hour)): Degraded
aldehyde form, share of the sample [3]: approximately 10%
hydrated form, share of the sample [3]: approximately 90%

O=CCCl [CAA, Chloroacetaldehyde]
PPV inactivation rate (porcine parvovirus (PPV) [4]; 2 mM CAA): ~0.6 log10/hour
porcine parvovirus inactivated (porcine parvovirus (PPV) [4]; [8]): 3.2 -4 log10
porcine parvovirus inactivated (porcine parvovirus (PPV) [4]; 4-hour treatment with 5 mM CAA): ≥ 3.6 logs
Average PPV Reduction (porcine parvovirus (PPV) [4]; CAA 0.5 mM (total), buffer, pH 5.40, 37° C.): 0.16 Log10/hour
Average PPV Reduction (porcine parvovirus (PPV) [4]; CAA 1 mM (total), buffer, pH 5.40, 37° C.): 0.26 Log10/hour
Average PPV Reduction (porcine parvovirus (PPV) [4]; CAA 2 mM (total), 2.5% IgG, pH 5.36, 37° C.): 0.61 Log10/hour
Average PPV Reduction (porcine parvovirus (PPV) [4]; CAA 2 mM (total), buffer, pH 5.50, 37° C.): 0.48 Log10/hour
Average PPV Reduction (porcine parvovirus (PPV) [4]; CAA 5 mM (total), 2.5% IgG, pH 5.50, 37° C.): ≧0.79 Log10/hour
concentration effective at inactivating pathogens (as low as) (porcine parvovirus (PPV) [4]; aqueous solutions of chloroacetaldehyde): about 1.0 mM
Pseudorabies Virus Av. rate (pseudorabies virus (PRV); 2 mM): 0.66 log10/hour
Pseudorabies Virus Reduction Factor (pseudorabies virus (PRV); 2 mM): 2.10 log10/4 hours
pseudorabies virus inactivated (pseudorabies virus (PRV); [8]): ≥ 3.2 log10
Pseudorabies Virus Av. rate (pseudorabies virus (PRV); 5 mM): ≧0.79 log10/hour
Pseudorabies Virus Reduction Factor (pseudorabies virus (PRV); 5 mM): ≧3.15 log10/4 hours
FVIII u/mL after 37° C. incubation, 0 hour ([5]; CAA 4.2 mM): 121 u/mL and 95 u/mL
FVIII u/mL after 37° C. incubation, 0 hour ([5]; CAA 8.5 mM): 88 u/mL and 109 u/mL
FVIII u/mL after 37° C. incubation, 3 hours ([5]; CAA 8.5 mM): 105 u/mL and 117 u/mL
FVIII u/mL after 37° C. incubation, 0 hour ([5]; CAA 12.7 mM): 89 u/mL and 106 u/mL
FVIII u/mL after 37° C. incubation, 3 hours ([5]; CAA 12.7 mM): 91 u/mL and 108 u/mL
PPV Average rate (porcine parvovirus (PPV) [6]; [9]): ≧0.61 Log10/hour
PPV Reduction Factor (porcine parvovirus (PPV) [6]; [9]): ≧2.44 Log10/4 hours
PPV Average rate (porcine parvovirus (PPV) [6]; [10]): ≧0.57 Log10/hour
PPV Reduction Factor (porcine parvovirus (PPV) [6]; [10]): ≧2.27 Log10/4 hours
PPV Average rate (porcine parvovirus (PPV) [6]; [11]): ≧0.52 Log10/hour
PPV Reduction Factor (porcine parvovirus (PPV) [6]; [11]): ≧2.09 Log10/4 hours
PPV Average rate (porcine parvovirus (PPV) [6]; [12]): ≧0.43 Log10/hour
PPV Reduction Factor (porcine parvovirus (PPV) [6]; [12]): ≧1.75 Log10/4 hours
PPV reduction factors (limited by assay sensitivity) (porcine parvovirus (PPV) [6]; [13]): ≥ 2 log10/4 hours
PPV reduction rate (limited by assay sensitivity) (porcine parvovirus (PPV) [6]; [13]): ≥ 0.5 log10/hour
% of initial clotting activity remaining after 37° C. incubation ([7]; CFIX-M + 1 mM CAA, 0 hour): 95.2%
% of initial clotting activity remaining after 37° C. incubation ([7]; CFIX-M + 1 mM CAA, 4 hour): 93.9%
% of initial clotting activity remaining after 37° C. incubation ([7]; CFIX-M + 1 mM CAA, 20 hour): 100.3%
% of initial clotting activity remaining after 37° C. incubation ([7]; CFIX-M + 5 mM CAA, 0 hour): 97.7%
% of initial clotting activity remaining after 37° C. incubation ([7]; CFIX-M + 5 mM CAA, 4 hour): 100.6%
% of initial clotting activity remaining after 37° C. incubation ([7]; CFIX-M + 5 mM CAA, 20 hour): 89.1%
